The values that follow come from patent US10174044B2, “Fused pyridines as kinase inhibitors” (BRISTOL-MYERS SQUIBB COMPANY, priority 2015, dated 2019).

Structures are written as SMILES.

One may read the IC50 as the point on the concentration scale where inhibition reaches its midpoint.

GST-Xa-hAAK1, sequence (Q2M2I8 whole entry): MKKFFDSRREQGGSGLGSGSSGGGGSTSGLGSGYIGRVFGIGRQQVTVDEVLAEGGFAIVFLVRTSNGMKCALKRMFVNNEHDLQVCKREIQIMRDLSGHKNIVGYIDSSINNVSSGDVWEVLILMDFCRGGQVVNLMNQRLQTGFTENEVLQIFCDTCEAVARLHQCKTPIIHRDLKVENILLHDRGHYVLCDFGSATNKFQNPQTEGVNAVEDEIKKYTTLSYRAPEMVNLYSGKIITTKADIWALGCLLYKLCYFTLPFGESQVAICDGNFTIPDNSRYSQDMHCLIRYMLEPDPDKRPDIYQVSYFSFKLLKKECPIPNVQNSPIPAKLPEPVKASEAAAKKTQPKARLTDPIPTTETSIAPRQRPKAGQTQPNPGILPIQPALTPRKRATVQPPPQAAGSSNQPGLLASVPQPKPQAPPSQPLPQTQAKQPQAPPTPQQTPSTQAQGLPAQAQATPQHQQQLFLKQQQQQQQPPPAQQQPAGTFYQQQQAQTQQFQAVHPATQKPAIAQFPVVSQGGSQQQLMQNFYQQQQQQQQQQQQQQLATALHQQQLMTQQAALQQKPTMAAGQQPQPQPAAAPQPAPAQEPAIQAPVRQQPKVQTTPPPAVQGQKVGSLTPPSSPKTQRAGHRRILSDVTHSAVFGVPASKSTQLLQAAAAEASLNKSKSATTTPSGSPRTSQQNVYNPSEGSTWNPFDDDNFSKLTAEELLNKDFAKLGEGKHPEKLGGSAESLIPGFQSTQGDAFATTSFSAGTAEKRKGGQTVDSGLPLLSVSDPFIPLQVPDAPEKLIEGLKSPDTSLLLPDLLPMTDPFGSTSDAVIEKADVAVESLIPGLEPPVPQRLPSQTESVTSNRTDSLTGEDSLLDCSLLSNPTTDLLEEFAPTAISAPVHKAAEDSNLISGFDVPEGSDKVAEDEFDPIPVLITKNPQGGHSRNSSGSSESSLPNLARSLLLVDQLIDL

In the experiment the target is GST-Xa-hAAK1 (Homo sapiens (Human), UniProt Q2M2I8). Nature of the experiment: AAK1 Kinase Assay. Type of experiment: biochemical. The note with it: bacterially expressed GST-Xa-hAAK1 3.5 nM; ATP 22 μM; fluoresceinated peptide substrate 1.5 μM; 3 hours at room temperature. How it is done:
The assays were performed in U-bottom 384-well plates. […] The reactions were initiated by the combination of bacterially expressed, GST-Xa-hAAK1 with substrates and test compounds. The reactions were incubated at room temperature for 3 hours and terminated by adding 60 μl of 35 mM EDTA buffer to each sample. The reactions were analyzed on the Caliper LabChip 3000 (Caliper, Hopkinton, Mass.) by electrophoretic separation of the fluorescent substrate and phosphorylated product. […] Compounds were dissolved at 10 mM in dimethylsulfoxide (DMSO) and evaluated at eleven concentrations. IC50 values were derived by non-linear regression analysis.
Turning to `CC(C)C[C@](C)(N)COc1ccc2c(c1)COc1cnc(NS(C)(=O)=O)cc1-2` [Example 55, (S)—N-(8-((2-amino-2,4-dimethylpentyl)oxy)-6H-isochromeno[3,4-c]pyridin-2-yl)methanesulfonamide], the IC50 is 123 nM.
In the case of `Cc1cc2c(cc1OCC(N)CCC(F)(F)F)c(=O)n(C)c1cnccc21` (centres unmarked) [Example 6, 8-((2-amino-5,5,5-trifluoropentyl)oxy)-5,9-dimethylbenzo[c][1,7]naphthyridin-6(5H)-one], the IC50 was found to be 3.7 nM.
The value for `CC(C)C[C@](C)(N)COc1ccc2c(c1)COc1cnc(F)cc1-2` [Example 57, (S)-1-((2-fluoro-6H-isochromeno[3,4-c]pyridin-8-yl)oxy)-2,4-dimethylpentan-2-amine] was 34 nM; that for `CCn1c(=O)c2cc(OC[C@@](C)(N)CC(C)C)ccc2c2ccnc(C)c21` [Example 19, (S)-8-((2-amino-2,4-dimethylpentyl)oxy)-5-ethyl-4-methylbenzo[c][1,7]naphthyridin-6(5H)-one] was 1340 nM.
Regarding `CC(C)CC(C)(N)COc1ccc2c(c1)c(=O)[nH]c1cnccc12` (centres unmarked) [Example 8, 8-((2-amino-2,4-dimethylpentyl)oxy)benzo[c][1,7]naphthyridin-6(5H)-one], the IC50 is 2.6 nM.
The value for `Cc1cc2c3ccc(OC[C@@](C)(N)CC(C)C)c(C)c3c(=O)n(C)c2cn1` [Example 20, (S)-8-((2-amino-2,4-dimethylpentyl)oxy)-2,5,7-trimethylbenzo[c][1,7]naphthyridin-6(5H)-one] was 4.1 nM; that for `Cc1nccc2c3ccc(OCC(C)(N)CC(C)C)cc3c(=O)n(C)c12` (centres unmarked) [Example 9, 8-((2-amino-2,4-dimethylpentyl)oxy)-4,5-dimethylbenzo[c][1,7]naphthyridin-6(5H)-one] was 49 nM.
Take `[2H]C([2H])([2H])n1c(=O)c2cc(OC[C@@](C)(N)CC(C)C)c(Cl)cc2c2ccnc(C)c21` [Example 22, (S)-8-((2-amino-2,4-dimethylpentyl)oxy)-9-chloro-4-methyl-5-(trideuteromethyl)benzo[c][1,7]naphthyridin-6(5H)-one]: the IC50 amounted to 3.2 nM.
Regarding `Cc1nccc2c3cc(Cl)c(OC[C@@](C)(N)CC(C)C)cc3c(=O)n(C(C)C)c12` [Example 25, (S)-8-((2-amino-2,4-dimethylpentyl)oxy)-9-chloro-5-isopropyl-4-methylbenzo[c][1,7]naphthyridin-6(5H)-one], the IC50 was 227 nM.
`Cc1nccc2c3cc(Cl)c(OC[C@@](C)(N)CC(C)C)cc3c(=O)n(C)c12` [Example 27, (S)-8-((2-amino-2,4-dimethylpentyl)oxy)-9-chloro-4,5-dimethylbenzo[c][1,7]naphthyridin-6(5H)-one]: the IC50 is 1.7 nM.
For `Cc1nccc2c3cc(Cl)c(OC[C@@H](N)CC(C)C)cc3c(=O)n(C)c12` [Example 5, (S)-8-((2-amino-4-methylpentyl)oxy)-9-chloro-4,5-dimethylbenzo[c][1,7]naphthyridin-6(5H)-one], the IC50 came out at 87 nM.
On to `CCOC(=O)Nc1nc(Cl)c2c(c1Cl)-c1ccc(OC[C@@](C)(N)CC(C)C)cc1CO2` [Example 46, (S)-ethyl (8-((2-amino-2,4-dimethylpentyl)oxy)-1,4-dichloro-6H-isochromeno[3,4-c]pyridin-2-yl)carbamate], for which the IC50 was found to be 45 nM.
Consider `CC(C)CC(C)(N)COc1ccc2c(c1)COc1cnc(NCC(F)(F)F)cc1-2` (centres unmarked) [Example 42, 8-((2-amino-2,4-dimethylpentyl)oxy)-N-(2,2,2-trifluoroethyl)-6H-isochromeno[3,4-c]pyridin-2-amine], for which the IC50 is 88 nM.
As to `CCOC(=O)Nc1cc2c(cn1)OCc1cc(OC[C@@](C)(N)CC(C)C)ccc1-2` [Example 41, (S)-ethyl (8-((2-amino-2,4-dimethylpentyl)oxy)-6H-isochromeno[3,4-c]pyridin-2-yl)carbamate], the IC50 turned out to be 0.62 nM.
